The source of these data is patent US9131698B2, “Biocidal compositions and methods of use” (Dow Global Technologies LLC, priority 2011, dated 2015).

Holding throughout (assay type): cell-based
For experiment [1], the system named is Desulfovibrio longus ATCC 51456. Nature of the experiment: Biocidal efficacy against anaerobic bacteria, 24 hours, minimum concentration for 99.999% bacterial reduction. The settings on record: 35° C. On the procedure:
(§1) The synergy indexes reported in the following examples are calculated using the following equation: Synergy Index=Ca/CA+Cb/CB
(§2) Ca: Concentration of biocide A required to achieve a certain level of bacterial kill when used in combination with B
(§3) CA: Concentration of biocide A required to achieve a certain level of bacterial kill when used alone
(§4) Cb: Concentration of biocide B required to achieve a certain level of bacterial kill when used in combination with A
(§5) CB: Concentration of biocide B required to achieve a certain level of bacterial kill when used alone.
(§6) A synergy index (SI) of 1 indicates additivity, a synergy index of less than 1 indicates synergy, and a synergy index greater than 1 indicates antagonism.
(§7) Inside an anaerobic chamber (Bactron anaerobic chamber), a deoxygenated sterile salt solution (3.1183 g of NaCl, 1.3082 mg of NaHCO3, 47.70 mg of KCl, 72.00 mg of CaCl2, 54.49 mg of MgSO4, 172.28 mg of Na2SO4, 43.92 mg of Na2CO3 in 1 L water) is inoculated with Desulfovibrio longus ATCC 51456 to a final bacterial concentration of 10^6 to 10^7 CFU/mL.

The test system is the same in experiment [2]. Nature of the experiment: Biocidal efficacy against SRB, 2 hour treatment time. As for the experimental part: as §1, §2, §3, §4, §5, §6, §7
Experiment [3] concerns Pseudomonas aeruginosa ATCC 10145 and Staphylococcus aureus ATCC 6538. Nature of the experiment: Biocidal efficacy against aerobic bacteria, 2 hr, minimum concentration for complete bacterial kill. The settings on record: 37° C. On the procedure: as §1, §2, §3, §4, §5, §6
(§8) Synergy Index is then calculated.

Experiment [4] has the same test system. Put plainly: Biocidal efficacy against aerobic bacteria, 24 hours, minimum concentration for 99.9% bacterial kill. The settings on record: 37° C. On the procedure: as §1, §2, §3, §4, §5, §6, §8
Experiment [5] deals with Biofilms of Desulfovibrio longus ATCC 51456. Put plainly: Biofilm removal, Calgary Biofilm Device, crystal violet staining. The settings on record: 2 hours treatment. On the procedure: Biofilms of Desulfovibrio longus ATCC 51456 are grown in a Calgary Biofilm Device (Innovotech, Alberta, Canada) at 35° C. and under anaerobic conditions for 72 hours with shaking (125 rpm). Modified Baar's Medium (ATCC #1249 Broth) is used as culture medium and the medium is changed after 48 hrs of incubation. […] After biocide treatment, the pegs are rinsed again with deoxygenated sterile 0.85% NaCl solution and then the total biofilm left on each peg is measured according to the following description. The biofilm is fixed with 99% methanol and, after air drying, the pegs are stained with 2% (w/v) crystal violet and washed with tap water. The pegs are then air dried and the crystal violet bound to the biofilm is extracted with 33% glacial acetic acid. The total remaining biofilm is determined by the optical density (OD) of the extracted solution at 580 nm.

Setting [6] is: PHMB part of minimum concentration.
Where [7] appears, read: THPS part of minimum concentration.

As to “tetrakis (hydroxymethyl) phosphonium sulfate [THPS]”, the “Concentration (ppm a.i.) for anaerobic bacteria kill, PHMB” value in experiment [1] (PHMB part of minimum tested concentration for 99.999% bacterial reduction) amounted to 0.0 ppm a.i. In addition, the “Concentration (ppm a.i.) for anaerobic bacteria kill, THPS” value in experiment [1] (THPS part of minimum tested concentration for 99.999% bacterial reduction) worked out at 8.8 ppm a.i. In addition, the “Concentration (ppm a.i.) for complete SRB kill, PHMB” value in experiment [2] (setting [6]) is listed as 0.0 ppm a.i. For the same substance, in experiment [2] (setting [7]), the “Concentration (ppm a.i.) for complete SRB kill, THPS” value worked out at 22.2 ppm a.i. Moreover, the “Concentration (ppm a.i.) for aerobic bacteria kill, PHMB” value in experiment [3] (PHMB part of minimum concentration for complete bacterial kill) is recorded as 0 ppm a.i. Also, the “Concentration (ppm a.i.) for aerobic bacteria kill, THPS” value in experiment [3] (THPS part of minimum concentration for complete bacterial kill) is on record as 50 ppm a.i. In experiment [4] (setting [6]), the “Concentration (ppm a.i.) for 99.9% bacterial kill, PHMB” value came to 0.0 ppm a.i. Besides, in experiment [4] (setting [7]), the “Concentration (ppm a.i.) for 99.9% bacterial kill, THPS” value is listed as 19.8 ppm a.i. Besides, the figures for the “Remaining biofilm, OD580 (optical density of biofilm captured crystal violet)” value in experiment [5] (50 ppm active) and in experiment [5] (200 ppm active) were 0.59 and 1.03, respectively.
